Columns and labels:
Ephrin type-B receptor 2 [1] = molecular target: T1, Ephrin type-B receptor 2 (Homo sapiens, UniProt P29323); experiment: Inhibition of EPH receptor B2 using ELISA
T1 sequence (P29323 whole entry): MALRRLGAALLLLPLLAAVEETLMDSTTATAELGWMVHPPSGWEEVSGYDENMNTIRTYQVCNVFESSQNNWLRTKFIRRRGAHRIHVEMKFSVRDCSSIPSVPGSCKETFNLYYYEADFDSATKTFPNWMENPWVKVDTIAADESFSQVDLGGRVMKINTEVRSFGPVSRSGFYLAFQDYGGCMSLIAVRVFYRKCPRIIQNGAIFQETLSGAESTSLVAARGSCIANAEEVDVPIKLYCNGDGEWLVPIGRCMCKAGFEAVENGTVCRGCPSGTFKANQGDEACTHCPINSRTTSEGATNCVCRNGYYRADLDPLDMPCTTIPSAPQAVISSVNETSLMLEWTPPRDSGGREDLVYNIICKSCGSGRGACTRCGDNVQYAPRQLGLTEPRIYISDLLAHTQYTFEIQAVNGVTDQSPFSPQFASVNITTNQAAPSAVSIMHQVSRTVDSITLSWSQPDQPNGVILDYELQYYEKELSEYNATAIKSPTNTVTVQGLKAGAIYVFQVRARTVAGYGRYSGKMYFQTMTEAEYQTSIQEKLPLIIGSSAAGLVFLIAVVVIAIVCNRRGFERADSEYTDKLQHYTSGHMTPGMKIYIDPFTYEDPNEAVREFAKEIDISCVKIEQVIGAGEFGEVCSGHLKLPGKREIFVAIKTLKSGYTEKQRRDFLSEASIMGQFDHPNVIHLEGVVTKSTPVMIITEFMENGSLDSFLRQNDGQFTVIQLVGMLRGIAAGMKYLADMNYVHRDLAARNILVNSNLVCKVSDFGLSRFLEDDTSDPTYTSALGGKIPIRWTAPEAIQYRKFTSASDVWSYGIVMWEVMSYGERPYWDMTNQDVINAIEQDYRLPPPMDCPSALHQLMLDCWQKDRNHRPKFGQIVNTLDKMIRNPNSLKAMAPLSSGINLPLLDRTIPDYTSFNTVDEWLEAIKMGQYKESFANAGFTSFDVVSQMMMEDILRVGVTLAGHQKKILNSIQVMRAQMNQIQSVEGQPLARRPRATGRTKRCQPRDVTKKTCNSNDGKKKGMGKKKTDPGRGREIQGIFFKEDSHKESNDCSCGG

Ephrin type-B receptor 2 [2] = molecular target: T1, Ephrin type-B receptor 2; experiment: Equilibrium binding constant for EPH receptor B2

Row | Compound | IC50 (Ephrin type-B receptor 2 [1]) | Kd (Ephrin type-B receptor 2 [2])
1 | COc1cc2ncnc(Nc3ccc(Oc4ccccc4)cc3)c2cc1OC | 86 µM | 58.4 µM
2 | CNc1ccc2c(Nc3cccc(Br)c3)ncnc2c1 | 34 µM | 21.9 µM
3 | CC(C)(C)n1nc(-c2ccc(Cl)cc2)c2c(N)ncnc21 | 52 µM | 36.5 µM
4 | COc1cc2ncnc(Nc3cccc(Br)c3)c2cc1OC | 10.2 µM | 8.1 µM
5 | CN(C)c1ccc(/C=C2/C(=O)Nc3ccccc32)cc1 | 27.5 µM | 19.5 µM

Further compounds by falling IC50 (Ephrin type-B receptor 2 [1]), results first:

Row | IC50 (Ephrin type-B receptor 2 [1]) | Kd (Ephrin type-B receptor 2 [2]) | Compound
6 | 38 µM |  | O=C1C=C(Nc2ccc(O)cc2)C(=O)c2ccccc21
7 | 1.2 µM | 2.4 µM | COc1cc2ncnc(Nc3cccc(O)c3)c2cc1OC

From ChEMBL document CHEMBL1144354, “Frontal affinity chromatography with MS detection of EphB2 tyrosine kinase receptor. 2. Identification of small-molecule inhibitors via coupling with virtual screening” (J Med Chem, 2005)
